Counter-ions that a name gives are not always drawn.
Columns and labels:
Candida kefyr = test: Measurement of antifungal activity in vitro (lowest active dose) vs. Candida kefyr; format: cell-based; conditions: lowest concentration inhibiting growth below 35% of control growth; CYG broth, 37° C. for 48 h, turbidimetry
Method: (§1) Test compounds were dissolved at a concentration of 10^−2 M in dimethyl sulfoxide (DMSO) and diluted into CYG broth (Odds, F. C. Antimicrobial Agents and Chemotherapy 1992; 36: 1727-1737) to give a final concentration of 25 μM and, in most tests, 5 μM. For some compounds the tests were done at 100, 10, 1.0 and 0.1 μM. Cultures were inoculated with Candida.kefyr to an initial concentration of 10^4/ml and with Trichophyton rubrum to an equivalent concentration determined by turbidimetry. Cultures were incubated in the wells of microdilution plates at 37° C. for 48 h (C. kefyr) and at 30° C. for 5-7 days (T. rubrum). Growth in wells containing test compounds was estimated turbidimetrically as a percentage of growth in compound-free controls and the lowest concentration of compound that inhibited the growth of an isolate below 35% of control growth was recorded as the lowest active dose (LAD).

Trichophyton rubrum = test: Measurement of antifungal activity in vitro (lowest active dose) vs. Trichophyton rubrum; format: cell-based; conditions: lowest concentration inhibiting growth below 35% of control growth; CYG broth, 30° C. for 5-7 days, turbidimetry
Method: as §1

| melting point [°C] | SMILES | LAD (μM) vs. C. keyr (Candida kefyr) | LAD (μM) vs. T. rubrum (Trichophyton rubrum) |
| --- | --- | --- | --- |
|  | CCC(C)N1CCN(c2ccc(N3CCN(c4ccc(OC[C@@H]5OC[C@@](Cn6cncn6)(c6ccc(F)cc6F)O5)cc4)CC3)cc2)C1=O (relative stereo) [Compound 21, cis-1-[4-[4-[4-[[4-(2,4-difluorophenyl)-4-(1H-1,2,4-triazol-1-ylmethyl)-1,3-dioxolan-2-yl]methoxy]phenyl]-1-piperazinyl]phenyl]-3-(1-methylpropyl)-2-imidazolidinone] | ≦0.1 μM | ≦0.1 μM |
|  | CCCN1C(=O)N(c2ccc(N3CCN(c4ccc(OC[C@@H]5OC[C@@](Cn6ccnc6)(c6ccc(F)cc6)O5)cc4)CC3)cc2)CC1(C)C (racemic) [Compound 12] | ≦25 μM | ≦5 μM |
|  | CCCN1CCN(c2ccc(N3CCN(c4ccc(OCC5OCC(Cn6ccnc6)(c6ccc(Cl)cc6)O5)cc4)CC3)cc2)C1=O (racemic) [Compound 4] | ≦5 μM | ≦5 μM |
|  | CC(C)N1CCN(c2ccc(N3CCN(c4ccc(OC[C@@H]5OC[C@@](Cn6cncn6)(c6ccc(F)cc6F)O5)cc4)CC3)cc2)C1=O (stereo in doubt) [Compound 41] | ≦0.1 μM | ≦0.1 μM |
| 196 | CC(C)NC(=O)Nc1ccc(N2CCN(c3ccc(OCC4OCC(Cn5cncn5)(c5ccc(F)cc5F)O4)cc3)CC2)cc1 (stereo not drawn) [Compound 53, (2S-cis)-N-[4-[4-[4-[[4-(2,4-difluorophenyl)-4-(1H-1,2,4-triazol-1-ylmetyl)-1,3-dioxolan-2-yl]-methoxy]phenyl]-1-piperazinyl]phenyl]-N′-(1-methylethyl)urea] |  |  |
|  | CC(C)N1CCN(c2ccc(N3CCN(c4ccc(OC[C@@H]5OC[C@@](Cn6ccnc6)(c6ccc(F)cc6)O5)cc4)CC3)cc2)C1=O (racemic) [Compound 23] | ≦5 μM | ≦5 μM |
|  | CCCCN1CCN(c2ccc(N3CCN(c4ccc(OC[C@@H]5OC[C@@](Cn6ccnc6)(c6ccc(F)cc6)O5)cc4)CC3)cc2)C1=O (racemic) [Compound 26] | ≦25 μM | ≦5 μM |
|  | CC(C)N1CCN(c2ccc(N3CCN(c4ccc(OC[C@@H]5OC[C@@](Cn6ccnc6)(c6ccc(F)cc6F)O5)cc4)CC3)cc2)C1=O (racemic) [Compound 34] | ≦5 μM | ≦5 μM |
|  | CCN1CCN(c2ccc(N3CCN(c4ccc(OC[C@@H]5OC[C@@](Cn6ccnc6)(c6ccc(F)cc6)O5)cc4)CC3)cc2)C1=O (racemic) [Compound 24] | ≦25 μM | ≦5 μM |
|  | CCCn1c(=O)n(CC)c(=O)n(-c2ccc(N3CCN(c4ccc(OC[C@@H]5OC[C@@](Cn6cncn6)(c6ccc(F)cc6F)O5)cc4)CC3)cc2)c1=O [Compound 46] | 1 µM | 100 µM |
|  | CC(C)N1CCN(c2ccc(N3CCN(c4ccc(OC[C@H]5OC[C@](Cn6cncn6)(c6ccc(F)cc6F)O5)cc4)CC3)cc2)C1=O.Cl (stereo in doubt) [Compound 52, (2S-cis)-1-[4-[4-[4-[[4-(2,4-difluorophenyl)-4-(1H-1,2,4-triazol-1-ylmethyl)-1,3-dioxolan-2-yl]methoxy]phenyl]-1-piperazinyl]phenyl]-3-(1-methylethyl)-2-imidazolidinone hydrochloride (1:1)] | ≦0.1 μM | ≦0.1 μM |
|  | CCCN1C(=O)N(c2ccc(N3CCN(c4ccc(OCC5OCC(Cn6ccnc6)(c6ccc(Cl)cc6)O5)cc4)CC3)cc2)CC1(C)C (racemic) [Compound 5] | ≦25 μM | ≦5 μM |
|  | CCN1C(=O)N(c2ccc(N3CCN(c4ccc(OC[C@@H]5OC[C@@](Cn6cncn6)(c6ccc(F)cc6F)O5)cc4)CC3)cc2)C(=O)C(C)(C)C1=O (relative stereo) [Compound 48, (2R-cis)-1-ethyl-3-[4-[4-[4-[[4-(2,4-diflurorophenyl)-4-(1H-1,2,4-triazol-1-ylmethyl)-1,3-dioxolan-2-yl]methoxy]phenyl]-1-piperazinyl]phenyl]-5,5-dimethyl-2,4,6(1H,3H,5H)-pyrimidinetrione] | 10 µM | >100 µM |
|  | CCN1CCN(c2ccc(N3CCN(c4ccc(OC[C@@H]5OC[C@@](Cn6ccnc6)(c6ccc(F)cc6F)O5)cc4)CC3)cc2)C1=O (racemic) [Compound 32] | ≦25 μM | ≦5 μM |
|  | CCC(C)N1CCN(c2ccc(N3CCN(c4ccc(OC[C@@H]5OC[C@@](Cn6ccnc6)(c6ccc(F)cc6F)O5)cc4)CC3)cc2)C1=O (mixture of isomers) [Compound 35] | ≦25 μM | ≦5 μM |
|  | CCCn1c(=O)n(CC)c(=O)n(-c2ccc(N3CCN(c4ccc(OC[C@H]5OC[C@](Cn6cncn6)(c6ccc(F)cc6F)O5)cc4)CC3)cc2)c1=O (relative stereo) [Compound 47, (2S-cis)-1-ethyl-3-[4-[4-[4-[[4-(2,4-difluorophenyl)-4-(1H-1,2,4-triazol-1-ylmethyl)-1,3-dioxolan-2-yl]methoxy]-phenyl]-1-piperazinyl]phenyl]-5-propyl-1,3,5-triazine-2,4,6(1H,3H,5H)-trione] | >100 µM | 1 µM |

| melting point [°C] | SMILES | LAD (μM) vs. C. keyr (Candida kefyr) | LAD (μM) vs. T. rubrum (Trichophyton rubrum) |
| --- | --- | --- | --- |
|  | CCN1CCN(c2ccc(N3CCN(c4ccc(OC[C@@H]5OC[C@@](Cn6ccnc6)(c6ccc(Cl)cc6)O5)cc4)CC3)cc2)C1=O (racemic) [Compound 27] | ≦5 μM | ≦5 μM |
| 186 | CC(C)N(C)C(=O)Nc1ccc(N2CCN(c3ccc(OCC4OCC(Cn5cncn5)(c5ccc(F)cc5F)O4)cc3)CC2)cc1 (stereo not drawn) (as salt: HCl) [Compound 54, (B-cis)-N-[4-[4-[4-[[4-(2,4-difluorophenyl)-4-(1H-1,2,4-triazol-1-yl-methyl)-1,3-dioxolan-2-yl]methoxy]phenyl]-1-piperazinyl]phenyl]-N′-methyl-N′-(1-methylethyl)urea] |  |  |
|  | CCC1C(=O)N(c2ccc(N3CCN(c4ccc(OC[C@@H]5OC[C@@](Cn6cncn6)(c6ccc(F)cc6F)O5)cc4)CC3)cc2)C(=O)N1CC (mixture of isomers) [Compound 20] | ≦5 μM | >25 µM |
|  | CCCN1CCN(c2ccc(N3CCN(c4ccc(OC[C@@H]5OC[C@@](Cn6ccnc6)(c6ccc(F)cc6)O5)cc4)CC3)cc2)C1=O (racemic) [Compound 25] | ≦5 μM | ≦5 μM |
|  | CN1CCN(c2ccc(N3CCN(c4ccc(OC[C@@H]5OC[C@@](Cn6ccnc6)(c6ccc(F)cc6)O5)cc4)CC3)cc2)C1=O (racemic) [Compound 42] | ≦5 μM | ≦5 μM |
|  | CC(C)N1CCN(c2ccc(N3CCN(c4ccc(OC[C@@H]5OC[C@@](Cn6cncn6)(c6ccc(F)cc6)O5)cc4)CC3)cc2)C1=O (racemic) [Compound 40] | ≦25 μM | ≦5 μM |
|  | CCC(CC)N1CCN(c2ccc(N3CCN(c4ccc(OC[C@@H]5OC[C@@](Cn6ccnc6)(c6ccc(F)cc6)O5)cc4)CC3)cc2)C1=O (racemic) [Compound 44] | ≦5 μM | ≦5 μM |
|  | CC(C)N1CCN(c2ccc(N3CCN(c4ccc(OC[C@@H]5OC[C@@](Cn6cncn6)(c6ccc(F)cc6F)O5)cc4)CC3)cc2)C1=O [Compound 50] | 1 µM | 1 µM |
|  | CCN1C(=O)N(c2ccc(N3CCN(c4ccc(OC[C@@H]5OC[C@@](Cn6cncn6)(c6ccc(F)cc6F)O5)cc4)CC3)cc2)C(C)(C)C1=O (racemic) [Compound 19] | ≦5 μM | ≦25 μM |
|  | CCCN1C(=O)N(c2ccc(N3CCN(c4ccc(OC[C@@H]5OC[C@@](Cn6cncn6)(c6ccc(Cl)cc6)O5)cc4)CC3)cc2)CC1(C)C (racemic) [Compound 9] | ≦25 μM | ≦25 μM |
|  | CCCN1CCN(c2ccc(N3CCN(c4ccc(OC[C@@H]5OC[C@@](Cn6ccnc6)(c6ccc(F)cc6F)O5)cc4)CC3)cc2)C1=O (racemic) [Compound 30] | ≦5 μM | ≦5 μM |
|  | CCCCN1CCN(c2ccc(N3CCN(c4ccc(OC[C@@H]5OC[C@@](Cn6ccnc6)(c6ccc(Cl)cc6)O5)cc4)CC3)cc2)C1=O (racemic) [Compound 29] | ≦25 μM | ≦5 μM |
|  | CCCN1C(=O)N(c2ccc(N3CCN(c4ccc(OC[C@@H]5OC[C@@](Cn6cncn6)(c6ccc(F)cc6)O5)cc4)CC3)cc2)CC1(C)C (racemic) [Compound 13] | ≦5 μM | ≦5 μM |
|  | CCN1C(=O)N(c2ccc(N3CCN(c4ccc(OC[C@H]5OC[C@](Cn6cncn6)(c6ccc(F)cc6F)O5)cc4)CC3)cc2)C(=O)C(C)(C)C1=O [Compound 49] | 1 µM | 1 µM |
|  | CC(C)N1CCN(c2ccc(N3CCN(c4ccc(OC[C@@H]5OC[C@@](Cn6ccnc6)(c6ccc(Cl)cc6)O5)cc4)CC3)cc2)C1=O (racemic) [Compound 28] | ≦25 μM | ≦5 μM |
